What was measured:
[1] = target: T1, dihydrofolate reductase (DHFR) (Homo sapiens, UniProt P00374); assay: Control experiment: biotinylated GroEL chaperonin on a BLI substrate dipped into a DHFR solution; format: binding
T1 sequence (P00374 1-187): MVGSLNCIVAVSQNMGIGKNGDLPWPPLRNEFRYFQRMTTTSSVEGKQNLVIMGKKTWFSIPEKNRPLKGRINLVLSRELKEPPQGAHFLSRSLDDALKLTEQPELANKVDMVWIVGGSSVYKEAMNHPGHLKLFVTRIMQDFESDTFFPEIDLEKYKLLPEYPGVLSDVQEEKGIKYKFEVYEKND
From the text: The chaperonin can bind particular target proteins as they transiently expose hydrophobic surfaces from their partially folded forms. The partitioning kinetics can be followed using the BLI high throughput system (Fortebio Octet™) or SPR or other suitable technology. With BLI as an example, the chaperonin can be attached to the BLI tip substrate to dip into a target protein solution. Alternatively, the capture protein and/or target protein can be attached to the BLI tip substrate to dip into a chaperonin solution. The chaperonin will bind with transitioned target proteins (e.g., second conformation), but has no or low binding with folded target proteins (e.g., first conformation). […] Potential protein stabilizers can be screened to see which ones inhibit the chaperonin from binding to the target protein by the stabilizer retaining the protein in the first conformation. In the presence of a potential protein stabilizer, the partitioning kinetic amplitudes show significant declines (e.g., inhibition of partitioning) or even abolish global partitioning, which is scored as a potential lead compound. Once identified, potential protein stabilizer compounds can be further tested with target proteins in secondary screens. […]

GroEL chaperonin = GroEL chaperonin (Escherichia coli, UniProt P0A6F5); assay: Binding of the substance to the chaperonin itself
Sequence of GroEL chaperonin (P0A6F5 2-548): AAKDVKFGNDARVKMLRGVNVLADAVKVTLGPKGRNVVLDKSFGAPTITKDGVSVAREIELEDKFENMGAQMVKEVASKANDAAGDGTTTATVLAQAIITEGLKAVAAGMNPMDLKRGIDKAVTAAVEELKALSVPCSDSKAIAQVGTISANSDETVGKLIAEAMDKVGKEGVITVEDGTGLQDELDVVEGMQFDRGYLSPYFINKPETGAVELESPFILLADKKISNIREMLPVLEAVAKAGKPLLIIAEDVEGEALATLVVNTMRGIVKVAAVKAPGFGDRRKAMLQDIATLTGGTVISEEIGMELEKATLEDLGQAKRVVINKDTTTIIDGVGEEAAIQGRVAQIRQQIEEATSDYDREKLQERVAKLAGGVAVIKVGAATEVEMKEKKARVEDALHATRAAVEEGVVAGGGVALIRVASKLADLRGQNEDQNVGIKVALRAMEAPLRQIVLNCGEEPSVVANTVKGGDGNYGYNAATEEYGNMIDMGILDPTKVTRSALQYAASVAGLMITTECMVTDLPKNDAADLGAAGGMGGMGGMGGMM

CFTR = CFTR (Homo sapiens, UniProt P13569); assay: BLI chaperonin (GroEL) binding to antibody-captured CFTR, with or without stabilizer (scheme of FIG. 9); conditions: compared with chaperonin alone and buffer signal
Sequence of CFTR (P13569 whole entry, species assumed): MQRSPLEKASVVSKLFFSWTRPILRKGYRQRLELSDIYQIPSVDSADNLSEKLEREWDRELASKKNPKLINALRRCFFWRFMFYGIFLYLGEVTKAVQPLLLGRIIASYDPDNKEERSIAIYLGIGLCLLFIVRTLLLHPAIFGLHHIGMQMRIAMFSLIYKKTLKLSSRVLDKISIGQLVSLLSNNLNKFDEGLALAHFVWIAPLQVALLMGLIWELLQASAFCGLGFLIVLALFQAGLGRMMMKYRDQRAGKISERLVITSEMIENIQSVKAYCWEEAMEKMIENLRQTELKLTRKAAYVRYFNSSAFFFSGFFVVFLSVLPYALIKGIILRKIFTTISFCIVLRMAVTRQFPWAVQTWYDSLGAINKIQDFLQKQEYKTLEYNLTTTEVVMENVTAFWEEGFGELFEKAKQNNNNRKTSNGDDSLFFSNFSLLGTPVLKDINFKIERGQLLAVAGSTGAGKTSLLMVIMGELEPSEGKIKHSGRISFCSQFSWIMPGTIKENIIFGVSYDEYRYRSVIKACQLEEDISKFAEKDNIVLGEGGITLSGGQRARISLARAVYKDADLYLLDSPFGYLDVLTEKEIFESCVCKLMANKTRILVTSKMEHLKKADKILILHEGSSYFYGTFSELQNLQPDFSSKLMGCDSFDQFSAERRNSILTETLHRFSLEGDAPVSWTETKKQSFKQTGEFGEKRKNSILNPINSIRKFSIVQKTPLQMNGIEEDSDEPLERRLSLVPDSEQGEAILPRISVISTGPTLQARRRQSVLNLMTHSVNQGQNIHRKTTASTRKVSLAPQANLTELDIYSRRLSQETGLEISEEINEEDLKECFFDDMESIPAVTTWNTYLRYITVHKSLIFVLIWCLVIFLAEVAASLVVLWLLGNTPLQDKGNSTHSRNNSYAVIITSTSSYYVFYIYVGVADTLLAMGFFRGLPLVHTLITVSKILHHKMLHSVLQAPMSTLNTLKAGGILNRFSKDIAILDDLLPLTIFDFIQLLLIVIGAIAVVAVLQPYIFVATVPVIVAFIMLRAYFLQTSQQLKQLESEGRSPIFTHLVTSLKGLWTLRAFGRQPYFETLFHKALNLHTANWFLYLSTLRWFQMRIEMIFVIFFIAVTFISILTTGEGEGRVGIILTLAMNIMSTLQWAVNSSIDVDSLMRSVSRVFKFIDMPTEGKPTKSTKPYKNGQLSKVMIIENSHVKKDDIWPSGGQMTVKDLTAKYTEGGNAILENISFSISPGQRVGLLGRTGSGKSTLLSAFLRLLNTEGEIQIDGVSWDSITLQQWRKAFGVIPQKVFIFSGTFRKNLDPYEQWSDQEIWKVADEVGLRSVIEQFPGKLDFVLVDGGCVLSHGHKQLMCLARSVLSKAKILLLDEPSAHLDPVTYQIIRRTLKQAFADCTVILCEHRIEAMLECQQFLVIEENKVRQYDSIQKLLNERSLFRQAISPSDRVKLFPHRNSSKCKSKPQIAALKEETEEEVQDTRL
From the text: In one embodiment, a linker antibody (e.g., anti-mouse antibody) can be attached to the substrate, which is then introduced to a capture antibody (e.g., CFTR antibody), and which is then introduced to a target protein (e.g., cystic fibrosis transmembrane conductance regulator, CFTR). In some instances the capture antibody can be linked directly to the substrate or through a suitable linker. However, the linker antibody can position the capture antibody a suitable distance from the substrate by antibody extension. If no stabilizer is present, a chaperonin (e.g., GroEL) can bind with the target protein to provide a large signal.
As shown, a substrate 202 has an anti-mouse antibody 906 bound thereto. Then, a CFTR antibody 908 is associated with the anti-mouse antibody 906. CFTR 910 is then introduce to and bound with the CFTR antibody 908 before a chaperonin 914 (e.g., GroEL) is introduced to the CFTR/CFTR antibody complex. […] When there is no stabilizer C, the chaperonin 514 binds with the CFTR/CFTR antibody complex to form complex 920 and to produce a large signal. When the stabilizer C is present, there is a decreased binding signal to indicate that the chaperonin cannot bind with the CFTR/CFTR antibody complex. […]

CFTR-NBD1 = CFTR-NBD1 (Homo sapiens, UniProt P13569); assay: GroEL binding to CFTR-NBD1 bound directly to the substrate; conditions: CFTR-NBD1 introduced to GTP prior to GroEL
Sequence of CFTR-NBD1 (P13569 423-646 limits assumed): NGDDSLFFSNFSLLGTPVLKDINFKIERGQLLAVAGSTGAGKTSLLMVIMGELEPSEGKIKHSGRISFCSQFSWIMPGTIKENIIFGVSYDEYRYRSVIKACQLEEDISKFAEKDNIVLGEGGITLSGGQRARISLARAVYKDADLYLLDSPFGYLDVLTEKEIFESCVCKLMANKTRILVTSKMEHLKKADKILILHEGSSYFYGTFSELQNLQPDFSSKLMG
From the text: Additionally, the CFTR nucleotide binding domain (e.g., CFTR-NBD1) may be bound directly to the substrate, which is then introduced to a GroEL buffer. […] When the CFTR-NBD1 is not introduced to GTP prior to being introduced to GroEL, there is a much higher single. Other substances besides GTP can also be screen to identify inhibitors of forming the CFTR-NBD1/GroEL complex.

Row | signal of GroEL-DHFR interaction ([1]; BLI, NADPH e.g. 10 mM) | signal of GroEL-DHFR interaction, combination ([1]; combination of GroEL and DHFR and 10 mM NADPH) | Structure (SMILES) | binding to the GroEL chaperonin (GroEL chaperonin) | chaperonin binding signal (stabilization of CFTR) (CFTR) | signal of GroEL binding to CFTR-NBD1 (CFTR-NBD1)
1 | decrease the signal | further reduce the signal | NC(=O)C1=CN([C@@H]2O[C@H](COP(=O)(O)OP(=O)(O)OC[C@H]3O[C@@H](n4cnc5c(N)ncnc54)[C@H](OP(=O)(O)O)[C@@H]3O)[C@@H](O)[C@H]2O)C=CC1 [NADPH] |  |  | 
2 |  |  | Nc1nc2c(ncn2[C@@H]2O[C@H](COP(=O)(O)OP(=O)(O)OP(=O)(O)O)[C@@H](O)[C@H]2O)c(=O)[nH]1 [GTP, guanosine triphosphate] | does not bind | decreased the chaperonin binding and decreased the signal | no signal or a low single
